# In patent US4338122A, “Biocidal 2-aryl-1,3-cyclopentanedione compounds and alkali metal and ammonium salts thereof” (Union Carbide Corporation, priority 1980, dated 1982):
# Tests used:
# [1] = test system: two-spotted mite (Tetranychus urticae (Koch)), adults and nymphal stages; experiment: Mite Foliage Spray Test (adult miticidal); format: in vivo; design: key to Miticidal, Adult (control rating): A: Excellent Control; B: Partial Control; No Control; conditions: Table I; mortality count four days after spraying
# Protocol: (§1) Suspensions of the test compounds were prepared by dissolving one gram of compound in 50 milliliters of acetone in which had been dissolved 0.1 gram (10 percent of the weight of compound) of an alkylphenoxyethoxyethanol surfactant, as an emulsifying or dispersing agent. The resulting solution was mixed into 160 milliliters of water to give roughly 200 milliliters of a suspension containing the compound in finely divided form. The thus prepared stock suspension contained 0.5 percent by weight of compound. The test concentrations employed in the tests described herein below were obtained by diluting the stock suspension with water. The test procedures were as follows:
# Adults and nymphal stages of the two-spotted mite (Tetranychus urticae (Koch)), reared on Tendergreen bean plants at 80°±5° F. and 50±5 percent relative humidity, were the test organisms. Infested leaves from a stock culture were placed on the primary leaves of two bean plants six to eight inches in height, growing in a two-and-a-half inch clay pot. 150-200 Mites, a sufficient number for testing, transferred from the excised leaves to the fresh plants in a period of twenty-four hours. Following the twenty-four hour transfer period, the excised leaves were removed from the infested plants. The test compounds were formulated by diluting the stock suspension with water to provide suspensions containing the desired amount of test compound per million parts of final formulation. The potted plants (one pot per compound) were placed on a revolving turntable and sprayed with 100-110 milliliters of test compound formulation by use of a DeVilbis spray gun set at 40 psi. air pressure. This application, which lasted 30 seconds, was sufficient to wet the plants to run-off. As a control, 100-110 milliliters of a water solution containing acetone and emulsifier in the same concentrations as the test compound formulation, but containing no test compound, were also sprayed on infested plants. The sprayed plants were held at 80°±5° F. and 50±5 percent relative humidity for four days, after which, a mortality count of motile forms was made on the leaves of the test plants. Any individual which was capable of locomotion upon prodding was considered living.
# (§2) In these tests the pesticidal activity of the compounds against mites and mite eggs were rated as follows:
# (§3) Tests were conducted in accordance with the procedures given at pages 32 to 37 supra. The results are expressed in the same manner as used in Table I, except with respect to miticidal activity. For mite adult and mite egg comparison purposes, results are given in parts per million (ppm) required for a 50 percent kill of mites or eggs, respectively.
# [2] = test system: egg of the two-spotted mite (Tetranychus urticae (Koch)); experiment: Mite Ovicide Test (egg); format: in vivo; design: key to Miticidal, Egg (control rating): A: Excellent Control; B: Partial Control; No Control; conditions: Table I; unhatched/hatched eggs four days after spraying
# Protocol: as §1
# The test organism was the egg of the two-spotted mite (Tetranychus urticae (Koch)), as obtained from adults reared on Tendergreen bean plants under controlled conditions of 80°±5° F. and 50±5 percent relative humidity. Heavily infested leaves from a stock culture were placed on the primary leaves of two bean plants six to eight inches in height growing in a two-and-a-half inch clay pot. Females were allowed to oviposit for a period of 48 hours and then the leaves of the infested plants were dipped in a solution containing 800 parts of tetraethyl pyrophosphate per million parts of water in order to destroy the reproductory forms and thus prevent further egg laying. […] The plants were allowed to dry thoroughly. The test compounds were formulated by diluting the stock suspension with water to give a suspension containing varying amounts of test compound per million parts of final formulation. The potted plants (one pot per compound) were placed on a revolving turntable and sprayed with 100-110 milliliters of test compound formulation by use of a DeVilbis spray gun set at 40 spig. air pressure. This application which lasted 30 seconds, was sufficient to wet the plants to run-off. As a control, 100-110 milliliters of a water solution containing acetone and emulsifier in the same concentrations as the test compound formulation, but containing no test compound, were also sprayed on plants infested with eggs. The sprayed plants were held at 80°±5° F. and 50±5 percent relative humidity for four days, after which a microscopic examination was made of unhatched (dead) and hatched (living) eggs.
# as §2, §3
smiles,measurement,setting,value
"O=C1C(c2ccc(Cl)cc2Cl)C(=O)C2CC=CCC12 (centres unmarked) [Cl Cl H (CH2 CHCHCH2), 8-(2',4'-dichlorophenyl)bicyclo[4.3.0]non-3-en-7,9-dione]","Miticidal, Adult (control rating)",[1],A
same,"Miticidal, Egg (control rating)",[2],A
